Assay results as given in article PMC10119282, “Molecular characterization of AIFM2/FSP1 inhibition by iFSP1-like molecules” (Cell Death & Disease, 2023).

How the values were obtained:
[1] = system: Pfa1 Gpx4−/− overexpressing hFSP1 F360A; assay: Cell viability (Alamar blue), hFSP1 F360A; type: cell-based, murine
Description: (§1) Cell Lines. 4-hydroxytamoxifen (TAM)-inducible Gpx4^−/− murine immortalized fibroblasts (Pfa1) were reported previously. These cells harbor two loxP-flanked Gpx4 alleles and stably express TAM inducible Cre recombinase allowing the genetic deletion of Gpx4 at will. For all experiments using Gpx4^−/− the well were treated with 4-hydroxitamoxifen (TAM) 1 µM. All cells were cultured with were cultured in DMEM-high glucose (4.5 g glucose/L) with 10% fetal bovine serum (FBS), Glutamax, and 1% penicillin/streptomycin (Gibco, Thermo Fischer) at 37 °C with 5% CO2 and verified to be negative for mycoplasma.
(§2) Cell viability assays. Alamar Blue method: Cells were seeded on 96-well plates (2000 cells per well) and treated with the compounds RSL3, iFSP1 and (liproxstatin-1) after plating. Cell viability was assessed 48 h (unless stated otherwise) after treatment using Alamar Blue as an indicator of viable cells. Alamar blue solution was made by dissolving of 1 g resazurin sodium salt (Thermo Fischer) in 200 mL sterile PBS and sterile filtrated through a 0.22 µm filter. Stock solutions were stored at 4 °C. The working solution was made freshly by adding 200 µL of the stock solution to 25 mL growth media. After 2–4 h incubation time, viability was estimated by measuring the fluorescence using a 540/35 excitation filter and a 590/20 emission on a Spark® microplate reader (Tecan, Zürich, Switzerland).

[2] = system: Pfa1 Gpx4−/− overexpressing hFSP1 Y296A; assay: Cell viability (Alamar blue), hFSP1 Y296A; type: cell-based, murine
Description: as §1, §2

[3] = system: Pfa1 Gpx4−/− overexpressing mFSP1 K319Q; assay: Cell viability (Alamar blue), mFSP1 K319Q; type: cell-based, murine; details: Mus musculus, x axis iFSP1 (μM), read-out: IC50 (dose-response toxicity)
Description: as §1, §2

[4] = system: Pfa1 Gpx4−/− overexpressing hFSP1 Y296A/F360A; assay: Cell viability (Alamar blue), hFSP1 Y296A/F360A; type: cell-based, murine
Description: as §1, §2

[5] = molecular target: T1, recombinant purified hFSP1 WT (Homo sapiens, UniProt Q9BRQ8); assay: NADH consumption assay (340 nm), FSP1 enzyme activity and inhibition; type: biochemical; details: iFSP1 2 µM; menadione as substrate
T1 construct: HisSUMO (cleaved yes); made in house; host or cells: E. coli BL21
Description: (§3) FSP1 (human isoform 1, UniProt Q9BRQ8-1) WT (hFSP1 WT) and F360L (hFSP1 F360L) were expressed in E.coli BL21 as HisSUMO fusion protein. Cells were grown in lysogeny broth medium at 18 °C and induced with 0.5 mM isopropyl-β-thiogalactoside at a cell density A600 of 0.6. Cells were collected after overnight expression by centrifugation, resuspended in lysis buffer ([…], 50 mM Tris-HCl pH 8, 1 mM TCEP, 20 mM imidazole, protease inhibitor, DNase) and lysed by sonication. Cell debris was removed by centrifugation (30,000 × g) at 4 °C for 30 min, after which an IMAC purification was performed. […] IMAC eluates were analysed by SDS PAGE and concentrated to 15 mL (hFSP1 WT) and 5 mL (hFSP1 F360L), respectively. […] Pure fractions were pooled (C12—D11 for hFSP1 WT and C7—D4 for hFSP1 F360L), analysed by SDS-PAGE (Supplementary Fig. 4) and concentrated to 5.8 mL at 285.9 µM (hFSP1 WT) and 1.2 mL at 269.5 µM (FSP1 F360L), flash frozen in liquid N2 and stored at −80 °C.
(§4) Enzyme reactions were performed in TBS buffer (50 mM TRIS pH 8, 250 mM NaCl) on a 96-well plate in a 100 µL final volume. […] Absorbance (340 nm) was recorded every 30 s on a Spark® microplate reader (Tecan, Zürich, Switzerland) in order to determine NADH consumption. […]

[6] = molecular target: T2, recombinant purified hFSP1 F360L mutant (Homo sapiens, UniProt Q9BRQ8, F360L); assay: as above; type: biochemical; details: iFSP1 2 µM; menadione as substrate
T2 construct: HisSUMO (cleaved yes); made in house; host or cells: E. coli BL21
Description: as §3, §4

[7] = system: Pfa1 Gpx4−/− cells overexpressing human FSP1 (hFSP1); assay: Cell viability (Alamar blue), dose-response toxicity in Gpx4-knockout cells expressing hFSP1; type: cell-based, murine
Description: as §1, §2
Codon-optimized Mus musculus (mouse) FSP1 (NP_001034283.1) and Homo sapiens (Human) FSP1 (NP_001185625.1) were synthesized by IDT as gBlocks^TM and subcloned into p442-IRES-blast vectors. The chimera constructs were generated based on the pairwise alignment between the gene of Homo sapiens (Human) and the Mus musculus (Mouse), all the chimeric constructs contain the murine isoform with one region exchanged to the human isoform. […]

[8] = system: Pfa1 Gpx4−/− overexpressing chimeric FSP1 C2; assay: Cell viability (Alamar blue), chimeric construct C2; type: cell-based, murine; details: Mus musculus; chimeric construct C2 (human residues 59 to 120); x axis iFSP1 (μM); read-out: IC50 (dose-response toxicity)
Description: as §1
as §2, with “Switzerland). […]” for “Switzerland).”

Water solubility = type: physicochemical
[9] = Mus musculus, x axis iFSP1 (μM), read-out: IC50 (dose-response toxicity)

T1 sequence (Q9BRQ8 whole entry): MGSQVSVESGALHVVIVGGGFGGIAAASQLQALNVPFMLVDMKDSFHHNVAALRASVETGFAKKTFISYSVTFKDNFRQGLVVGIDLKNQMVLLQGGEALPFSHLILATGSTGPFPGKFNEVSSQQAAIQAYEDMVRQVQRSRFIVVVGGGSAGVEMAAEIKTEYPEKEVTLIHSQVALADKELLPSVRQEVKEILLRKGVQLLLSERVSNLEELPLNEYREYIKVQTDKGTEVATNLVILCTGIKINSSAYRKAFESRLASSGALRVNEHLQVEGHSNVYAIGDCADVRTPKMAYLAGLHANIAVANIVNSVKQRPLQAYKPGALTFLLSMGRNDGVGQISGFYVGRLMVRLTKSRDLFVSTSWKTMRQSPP
T2 sequence (Q9BRQ8 whole entry F360L): as the sequence (Q9BRQ8 whole entry) above, with F360L counted along it

Compound: Cc1ccc(-c2c(C#N)c(N)n3c(nc4ccccc43)c2C#N)cc1 [iFSP1]
- inhibitor activity (ferroptosis induction) [1]: abolishes the inhibitor activity
- IC50 [1, 9]: 5.62 µM
- inhibitor activity (ferroptosis induction) [2]: abolishes the inhibitor activity
- IC50 [2, 9]: 5.62 µM
- IC50 [3]: 5.62 µM
- inhibitor activity (ferroptosis induction) [4]: abolishes the inhibitor activity
- IC50 [4, 9]: 5.62 µM
- inhibition of enzyme activity (NADH consumption) [5]: inhibited
- inhibition of enzyme activity (NADH consumption) [6]: just the activity of the WT protein was inhibited by iFSP1
- IC50 ([7]; Mus musculus, hFSP1 WT, Δ curve (no Lip-1), Alamar blue, x axis iFSP1 (μM)): 0.45 µM
- induction of ferroptosis ([7]; human isoform): induce ferroptosis
- IC50 [8]: 6.2 µM
- water solubility (Water solubility): poor
